Assay results from ChEMBL document CHEMBL5303573, “Mapping human microbiome drug metabolism by gut bacteria and their genes” (Nature, 2019).
Non-standard residues stand in square brackets, D forms with d. Residues, ends and D or L forms follow the SMILES beside them. pGlu = O=C1CC[C@@H](C(=O)O)N1; Thz = O=C(O)[C@@H]1CSCN1

Legend:
[1] = The drug is tested on Odoribacter splanchnicus strain: fecal isolate for biotransformation. The drug concentrations were measured before and after a 12-h incubation by liquid-chromatography-coupled mass spectrometry (LC–MS); conditions: 2 µM
[2] = The drug is tested on Clostridium asparagiforme strain: DSM15981 for biotransformation. The drug concentrations were measured before and after a 12-h incubation by liquid-chromatography-coupled mass spectrometry (LC–MS); type: ADME; set-up: dose 2 uM, timepoint 0 vs 12 hours; conditions: enterocloster asparagiformis, 2 µM
[3] = The drug is tested on Escherichia coli strain: BW25113 for biotransformation. The drug concentrations were measured before and after a 12-h incubation by liquid-chromatography-coupled mass spectrometry (LC–MS); conditions: 2 µM
[4] = limosilactobacillus reuteri cf48-3a, 12 h, 2 µM
Description: The drug is tested on Lactobacillus reuteri CF48-3A strain: BEI HM-102 for biotransformation. The drug concentrations were measured before and after a 12-h incubation by liquid-chromatography-coupled mass spectrometry (LC–MS)

[5] = The drug is tested on Bacteroides coprophilus strain: DSM18228 for biotransformation. The drug concentrations were measured before and after a 12-h incubation by liquid-chromatography-coupled mass spectrometry (LC–MS); conditions: 2 µM
[6] = The drug is tested on Bacteroides dorei strain: DSM17855 for biotransformation. The drug concentrations were measured before and after a 12-h incubation by liquid-chromatography-coupled mass spectrometry (LC–MS); conditions: phocaeicola dorei, 2 µM
[7] = The drug is tested on Enterobacter cancerogenus strain: ATCC35316 for biotransformation. The drug concentrations were measured before and after a 12-h incubation by liquid-chromatography-coupled mass spectrometry (LC–MS); conditions: 2 µM
[8] = The drug is tested on Enterococcus faecalis strain: V583 for biotransformation. The drug concentrations were measured before and after a 12-h incubation by liquid-chromatography-coupled mass spectrometry (LC–MS); conditions: 2 µM
[9] = The drug is tested on Edwardsiella tarda strain: ATCC23685 for biotransformation. The drug concentrations were measured before and after a 12-h incubation by liquid-chromatography-coupled mass spectrometry (LC–MS); conditions: 2 µM
[10] = The drug is tested on Eubacterium hallii strain: DSM3353 for biotransformation. The drug concentrations were measured before and after a 12-h incubation by liquid-chromatography-coupled mass spectrometry (LC–MS); conditions: anaerobutyricum hallii, 2 µM
[11] = bacteroides eggerthii, 12 h, 2 µM
Description: The drug is tested on Bacteroides eggerthii strain: DSM20697 for biotransformation. The drug concentrations were measured before and after a 12-h incubation by liquid-chromatography-coupled mass spectrometry (LC–MS)

[12] = bacteroides fragilis, 12 h, 2 µM
Description: The drug is tested on Bacteroides fragilis strain: NCTC 9343 for biotransformation. The drug concentrations were measured before and after a 12-h incubation by liquid-chromatography-coupled mass spectrometry (LC–MS)

[13] = The drug is tested on Bacteroides sp. WH2 strain: WH2 for biotransformation. The drug concentrations were measured before and after a 12-h incubation by liquid-chromatography-coupled mass spectrometry (LC–MS); conditions: bacteroides sp. wh2, 12 h, 2 µM
[14] = The drug is tested on Bacteroides fragilis strain: HMW615 for biotransformation. The drug concentrations were measured before and after a 12-h incubation by liquid-chromatography-coupled mass spectrometry (LC–MS); conditions: 2 µM
[15] = The drug is tested on Clostridium symbiosum strain: ATCC14940 for biotransformation. The drug concentrations were measured before and after a 12-h incubation by liquid-chromatography-coupled mass spectrometry (LC–MS); conditions: 2 µM
[16] = The drug is tested on Bacteroides uniformis strain: ATCC8492 for biotransformation. The drug concentrations were measured before and after a 12-h incubation by liquid-chromatography-coupled mass spectrometry (LC–MS); conditions: 2 µM
[17] = parabacteroides distasonis, 12 h, 2 µM
Description: The drug is tested on Parabacteroides distasonis strain: ATCC8503 for biotransformation. The drug concentrations were measured before and after a 12-h incubation by liquid-chromatography-coupled mass spectrometry (LC–MS)

[18] = The drug is tested on Eubacterium rectale strain: ATCC33656 for biotransformation. The drug concentrations were measured before and after a 12-h incubation by liquid-chromatography-coupled mass spectrometry (LC–MS); conditions: agathobacter rectalis, 2 µM
[19] = The drug is tested on Anaerococcus hydrogenalis strain: DSM7454 for biotransformation. The drug concentrations were measured before and after a 12-h incubation by liquid-chromatography-coupled mass spectrometry (LC–MS); conditions: 2 µM
[20] = The drug is tested on Bifidobacterium breve strain: DSM20213 for biotransformation. The drug concentrations were measured before and after a 12-h incubation by liquid-chromatography-coupled mass spectrometry (LC–MS); conditions: 2 µM

O=C(NCc1ccccc1)OCCO [BURAMATE]
Bacterial Biotransformation [1]: Compound NOT metabolized | Bacterial Biotransformation [2]: Compound NOT metabolized | Bacterial Biotransformation [3]: Compound NOT metabolized | Bacterial Biotransformation [4]: Compound NOT metabolized | Bacterial Biotransformation [5]: Compound NOT metabolized | Bacterial Biotransformation [6]: Compound NOT metabolized | Bacterial Biotransformation [7]: Compound NOT metabolized | Bacterial Biotransformation [8]: Compound NOT metabolized | Bacterial Biotransformation [9]: Compound NOT metabolized | Bacterial Biotransformation [10]: Compound NOT metabolized | Bacterial Biotransformation [11]: Compound NOT metabolized | Bacterial Biotransformation [12]: Compound NOT metabolized | Bacterial Biotransformation [13]: Compound NOT metabolized | Bacterial Biotransformation [14]: Compound NOT metabolized | Bacterial Biotransformation [15]: Compound NOT metabolized | Bacterial Biotransformation [16]: Compound NOT metabolized | Bacterial Biotransformation [17]: Compound NOT metabolized | Bacterial Biotransformation [18]: Compound NOT metabolized

C=CC[C@@H]1/C=C(\C)C[C@H](C)C[C@H](OC)[C@H]2O[C@@](O)(C(=O)C(=O)N3CCCC[C@H]3C(=O)O[C@H](/C(C)=C/[C@@H]3CC[C@@H](O)[C@H](OC)C3)[C@H](C)[C@@H](O)CC1=O)[C@H](C)C[C@@H]2OC.O [TACROLIMUS]
Bacterial Biotransformation [1]: Compound metabolized | Bacterial Biotransformation [19]: Compound metabolized | Bacterial Biotransformation [2]: Compound metabolized | Bacterial Biotransformation [3]: Compound metabolized | Bacterial Biotransformation [4]: Compound metabolized | Bacterial Biotransformation [5]: Compound metabolized | Bacterial Biotransformation [6]: Compound metabolized | Bacterial Biotransformation [7]: Compound metabolized | Bacterial Biotransformation [9]: Compound NOT metabolized | Bacterial Biotransformation [10]: Compound metabolized | Bacterial Biotransformation [20]: Compound NOT metabolized | Bacterial Biotransformation [11]: Compound metabolized | Bacterial Biotransformation [12]: Compound metabolized | Bacterial Biotransformation [13]: Compound NOT metabolized | Bacterial Biotransformation [14]: Compound NOT metabolized | Bacterial Biotransformation [15]: Compound metabolized | Bacterial Biotransformation [16]: Compound metabolized | Bacterial Biotransformation [17]: Compound metabolized | Bacterial Biotransformation [18]: Compound metabolized

CC(CN(C)C)CN1c2ccccc2CCc2ccccc21.O=C(O)/C=C\C(=O)O (stereo not given) [TRIMIPRAMINE MALEATE]
Bacterial Biotransformation [1]: Compound NOT metabolized | Bacterial Biotransformation [19]: Compound NOT metabolized | Bacterial Biotransformation [2]: Compound NOT metabolized | Bacterial Biotransformation [3]: Compound NOT metabolized | Bacterial Biotransformation [4]: Compound NOT metabolized | Bacterial Biotransformation [6]: Compound NOT metabolized | Bacterial Biotransformation [7]: Compound NOT metabolized | Bacterial Biotransformation [9]: Compound NOT metabolized | Bacterial Biotransformation [10]: Compound NOT metabolized | Bacterial Biotransformation [20]: Compound NOT metabolized | Bacterial Biotransformation [11]: Compound NOT metabolized | Bacterial Biotransformation [13]: Compound NOT metabolized | Bacterial Biotransformation [14]: Compound NOT metabolized | Bacterial Biotransformation [15]: Compound NOT metabolized | Bacterial Biotransformation [16]: Compound NOT metabolized | Bacterial Biotransformation [17]: Compound NOT metabolized | Bacterial Biotransformation [18]: Compound NOT metabolized

O=C1CC[C@@H](C(=O)N2CSC[C@H]2C(=O)O)N1 [PIDOTIMOD] ([pGlu]-[Thz]-OH)
Bacterial Biotransformation [1]: Compound NOT metabolized | Bacterial Biotransformation [19]: Compound NOT metabolized | Bacterial Biotransformation [2]: Compound NOT metabolized | Bacterial Biotransformation [3]: Compound NOT metabolized | Bacterial Biotransformation [5]: Compound metabolized | Bacterial Biotransformation [6]: Compound metabolized | Bacterial Biotransformation [7]: Compound NOT metabolized | Bacterial Biotransformation [8]: Compound NOT metabolized | Bacterial Biotransformation [9]: Compound NOT metabolized | Bacterial Biotransformation [10]: Compound NOT metabolized | Bacterial Biotransformation [20]: Compound NOT metabolized | Bacterial Biotransformation [11]: Compound NOT metabolized | Bacterial Biotransformation [12]: Compound metabolized | Bacterial Biotransformation [13]: Compound NOT metabolized | Bacterial Biotransformation [14]: Compound metabolized | Bacterial Biotransformation [15]: Compound NOT metabolized | Bacterial Biotransformation [16]: Compound metabolized | Bacterial Biotransformation [17]: Compound metabolized | Bacterial Biotransformation [18]: Compound NOT metabolized

CCC(COC(=O)c1cc(OC)c(OC)c(OC)c1)(c1ccccc1)N(C)C.O=C(O)/C=C\C(=O)O (stereo not given)
Bacterial Biotransformation [1]: Compound metabolized | Bacterial Biotransformation [19]: Compound metabolized | Bacterial Biotransformation [2]: Compound metabolized | Bacterial Biotransformation [3]: Compound metabolized | Bacterial Biotransformation [4]: Compound metabolized | Bacterial Biotransformation [5]: Compound metabolized | Bacterial Biotransformation [6]: Compound metabolized | Bacterial Biotransformation [7]: Compound metabolized | Bacterial Biotransformation [8]: Compound metabolized | Bacterial Biotransformation [9]: Compound metabolized | Bacterial Biotransformation [10]: Compound metabolized | Bacterial Biotransformation [11]: Compound NOT metabolized | Bacterial Biotransformation [12]: Compound metabolized | Bacterial Biotransformation [13]: Compound metabolized | Bacterial Biotransformation [14]: Compound NOT metabolized | Bacterial Biotransformation [15]: Compound metabolized | Bacterial Biotransformation [16]: Compound metabolized | Bacterial Biotransformation [17]: Compound metabolized | Bacterial Biotransformation [18]: Compound metabolized

Cc1cn([C@H]2C[C@H](N=[N+]=[N-])[C@@H](CO)O2)c(=O)[nH]c1=O [ZIDOVUDINE]
Bacterial Biotransformation [1]: Compound NOT metabolized | Bacterial Biotransformation [19]: Compound metabolized | Bacterial Biotransformation [2]: Compound NOT metabolized | Bacterial Biotransformation [3]: Compound NOT metabolized | Bacterial Biotransformation [4]: Compound NOT metabolized | Bacterial Biotransformation [5]: Compound NOT metabolized | Bacterial Biotransformation [6]: Compound metabolized | Bacterial Biotransformation [7]: Compound NOT metabolized | Bacterial Biotransformation [8]: Compound NOT metabolized | Bacterial Biotransformation [9]: Compound NOT metabolized | Bacterial Biotransformation [10]: Compound NOT metabolized | Bacterial Biotransformation [20]: Compound NOT metabolized | Bacterial Biotransformation [11]: Compound metabolized | Bacterial Biotransformation [13]: Compound NOT metabolized | Bacterial Biotransformation [14]: Compound NOT metabolized | Bacterial Biotransformation [15]: Compound NOT metabolized | Bacterial Biotransformation [17]: Compound NOT metabolized | Bacterial Biotransformation [18]: Compound NOT metabolized
